Source: patent US10632208B2, “Peptide-mediated drug delivery across epithelial barrier” (Purdue Research Foundation, priority 2017, dated 2020)
Entries after “also recorded” stand apart in the source; their conditions may differ.

What was measured:
[1] = system: Caco-2 cell monolayers; test: Transepithelial electrical resistance (TEER) of Caco-2 monolayers on Transwell inserts; assay type: cell-based, human; details: for effect on Caco-2 TEER in LAP-treated cells: BAY 10 μM or PDTC 100 μM
[2] = system: occludin, claudin-1 and E-cadherin; test: Immunoblot of junctional proteins in detergent-insoluble fraction of Caco-2 cells; assay type: cell-based, human
Procedure: (§1) To extract the proteins from Caco-2 cells, cells were seeded in 6-well plates for 14-21 days. Following treatment, the cells were washed, scraped from the bottom of 6-well plates, suspended in PBS, and pelleted by centrifugation. Total protein from Caco-2 cells was extracted using the M-PER Extraction Kit (Thermo Fisher Scientific). Detergent-insoluble (membrane) and detergent-soluble (cytosolic) proteins were isolated using a Mem-Per Eukaryotic Protein Extraction Kit (Thermo Fisher Scientific) while the cytosolic and nuclear proteins were extracted using NE-PER Extraction Reagent (Thermo Fisher Scientific). To extract proteins from ileal epithelial cells, the epithelial cell fraction from ileal tissues were isolated as described above and the detergent-insoluble and the detergent-soluble proteins were isolated using a Mem-Per Eukaryotic Protein Extraction Kit.
(§2) To extract total protein from intact bacterial cells, sample solvent buffer and sonication (3 cycles of 20 min each) were used. […] The protein concentrations were determined by BCA assay (Thermo Fisher Scientific), and separated on SDS-PAGE gels (10-12.5% polyacrylamide) and electro-transferred to polyvinylidene difluoride (PVDF) membrane (Millipore). […] To compare the reaction intensities, the average band densities were determined using Quantity One software (Bio-Rad). […]

[3] = system: L. monocytogenes; test: Translocation of L. monocytogenes through polarized Caco-2 monolayers on Transwell filter-inserts; assay type: cell-based, Listeria monocytogenes; details: for effect on translocation of the lap strain: 30 min pretreatment, BAY 10 μM or PDTC 100 μM
Procedure: Caco-2 cells were grown as monolayers on Transwell inserts with 3.0 μm pores (Corning-Costar) for up to 14-21 days. TEER was measured to monitor the monolayer integrity (Millicells Voltmeter, Millipore). A TEER value of at least 200 Ω/cm^2 (±10) was used as the basal value to monitor the monolayer integrity. Bacterial cells were washed three times in PBS and resuspended in DMEM-FBS (10%) at a MOI of ˜50 and were added to the apical side of the Transwell system, and after 2 h incubation period at 37° C. in 5% CO2, the liquid was collected from the basal well, and then translocated bacteria were enumerated by plating (Burkholder and Bhunia, 2010). For analysis of FD4 flux, non-metabolizable 4 kDa FITC-labeled dextran (FD4; 5 mg/ml, Sigma-Aldrich) was added with bacteria (MOI, ˜50) resuspended in DMEM-FBS (10%) and added to the apical side. After 2 h incubation at 37° C. in 5% CO2, the liquid was collected from the basal well and fluorescence was measured (Em: 485 nm; Ex: 520 nm; Spectramax, Molecular Devices). For pharmacological inhibition treatments, PDTC (100 μM for 30 min pre-treatment; R&D Systems), Bay-11-7085 (10 μM for 30 min pre-treatment; Sigma-Aldrich), ML-9 (20 μM for 30 min pre-treatment; Sigma-Aldrich), PIK (150 μM, 30 min-pre-treatment and kept during 2-h infection) (Zolotarevsky et al., 2002), and Cytochalasin D (1 μg/mL for 1 h; Sigma-Aldrich) were used separately.
For re-association of externally added LAP to the lap^− mutant, bacteria were harvested from 1 ml of overnight grown culture, and the pellet was washed three times in PBS before the addition of 1 or 2 μg/mL of purified LAP. The mixture was incubated for 30 min at 30° C. with continuous shaking and then pelleted, washed five times in the PBS, resuspended in DMEM, and used in the aforementioned translocation assay.

[4] = system: NF-κB(p65); test: Immunoblot of NF-κB activation in Caco-2 cytoplasmic and nuclear extracts; assay type: cell-based, human; details: BAY 10 μM or PDTC 100 μM, Caco-2 cells
Procedure: as §1
To extract total protein from intact bacterial cells, sample solvent buffer and sonication (3 cycles of […]) were used. To isolate the cell wall-associated proteins bacterial pellets were resuspended in 0.5 ml protein extraction buffer (0.5% SDS, 10 mM Tris at pH 6.9), and incubated at 37° C. for 30 min with agitation. The samples were centrifuged (14,000×g, 10 min, 4° C.), and the supernatants (containing cell wall-associated proteins) were retained. Halt proteases and phosphatase inhibitors (Thermo Fisher Scientific) were used during all of the protein extraction procedures. The protein concentrations were determined by BCA assay (Thermo Fisher Scientific), and separated on SDS-PAGE gels (10-12.5% polyacrylamide) and electro-transferred to polyvinylidene difluoride (PVDF) membrane (Millipore). The membranes were then blocked in 5% nonfat dry milk (NFDM) in 0.1 M Tris-buffered saline, pH 7.5 (TBS) containing 0.1% Tween 20 (TBST) for at least 1 h. All of the primary antibodies were diluted in 5% bovine serum albumin (BSA) or 5% NFDM in TBST and incubated overnight. Secondary antibodies (1:2000 in 5% NFDM in TBST) incubated for 1 h at 37° C., and a chemiluminescence method was performed using LumiGLO reagent (Cell Signaling). The membranes were exposed to X-ray films or visualized using the Chemi-Doc XRS system (Bio-Rad). To immunoprobe the same membrane with another antibody, the originally bound antibodies from the membranes were removed by incubating the membranes in Restore Western Blot Stripping Buffer (Thermo Fisher Scientific) according to the manufacturer's protocol. To compare the reaction intensities, the average band densities were determined using Quantity One software (Bio-Rad). Densitometry reports represent the mean±SEM after normalization to the loading control and is presented as % change of protein with the average for untreated cells (control) set at 100%. Immunoblots and densitometric reports are representative of 2-3 independent experiments.

[5] = system: L. monocytogenes; test: Intracellular invasion of L. monocytogenes in Caco-2 cells (gentamicin protection); assay type: cell-based, Listeria monocytogenes
Procedure: For bacterial invasion analysis, monolayers were washed with PBS after 1 h of infection (MOI, ˜50) and incubated with DMEM-FBS (10%) containing gentamicin (50 μg/mL) for 1 h. Caco-2 cells were lysed with 0.1% Triton X, and the internalized bacteria were enumerated by plating.

[6] = system: MLCK; test: Immunoblot of MLCK and P-MLC in whole-cell Caco-2 lysates; assay type: cell-based, human; details: pre-treatment prior to infection with WT strain, relative to uninfected cells
Procedure: as §1, §2

| SMILES | effect on Caco-2 TEER in LAP-treated cells [1] | effect of the inhibitor alone on expression of junctional proteins [2] | effect on L. monocytogenes-induced redistribution of occludin, claudin-1 and E-cadherin ([2]; PIK 150 μM or BAY 10 μM, 30 min, prior to WT infection (MOI 50, 45 min)) | effect on translocation of the lap strain [3] | effect on LAP-mediated NF-κB activation [4] | effect on intracellular invasion of the WT strain [5] | levels of MLCK and P-MLC in whole cell lysate [6] | effect of the inhibitor alone on Caco-2 TEER [1] | increase of translocation of WT ([3]; cytochalasin D 1 μg/mL for 1 h) | effect on translocation of WT and ΔinlA strains ([3]; PIK 150 μM or ML-9 20 μM, MOI 50) |
| --- | --- | --- | --- | --- | --- | --- | --- | --- | --- | --- |
| CC(C)(C)c1ccc(S(=O)(=O)/C=C/C#N)cc1 [BAY, BAY 11-7085] | restored | no effect | prevented; also recorded: Restoration | no apparent effect | inhibited | did not affect | unchanged levels | – | – | – |
| C=C1[C@@H](C)[C@H]2[C@H](Cc3ccccc3)NC(=O)[C@]23[C@H](OC(C)=O)/C=C/[C@@](C)(O)C(=O)[C@@H](C)C/C=C/[C@H]3[C@@H]1O [Cytochalasin D] | – | – | – | – | – | low | – | very low | approximately 2.5 fold | – |
| O=S(=O)(c1cccc2c(Cl)cccc12)N1CCCNCC1 [ML-9] | – | – | – | – | – | none of these inhibitors, affected the intracellular invasion capabilities | – | – | – | significantly reduced |
| S=C(S)N1CCCC1 [PDTC, pyrrolidine dithiocarbamate] | restored | – | – | no apparent effect | inhibited | did not affect | – | did not affect | – | – |
